Consider 17 compounds from patent publication US11345698B2, “Substituted imidazo[1,2-a]pyridines, substituted imidazo[1,2-a]pyrazines, related compounds, and their use in the treatment of medical disorders” (Bial—R&D Investments, S.A., priority 2016, dated 2022).

For data set [1], the target named is T1, glucocerebrosidase (Gcase) (Homo sapiens, UniProt P04062).
T1 sequence (P04062 40-536): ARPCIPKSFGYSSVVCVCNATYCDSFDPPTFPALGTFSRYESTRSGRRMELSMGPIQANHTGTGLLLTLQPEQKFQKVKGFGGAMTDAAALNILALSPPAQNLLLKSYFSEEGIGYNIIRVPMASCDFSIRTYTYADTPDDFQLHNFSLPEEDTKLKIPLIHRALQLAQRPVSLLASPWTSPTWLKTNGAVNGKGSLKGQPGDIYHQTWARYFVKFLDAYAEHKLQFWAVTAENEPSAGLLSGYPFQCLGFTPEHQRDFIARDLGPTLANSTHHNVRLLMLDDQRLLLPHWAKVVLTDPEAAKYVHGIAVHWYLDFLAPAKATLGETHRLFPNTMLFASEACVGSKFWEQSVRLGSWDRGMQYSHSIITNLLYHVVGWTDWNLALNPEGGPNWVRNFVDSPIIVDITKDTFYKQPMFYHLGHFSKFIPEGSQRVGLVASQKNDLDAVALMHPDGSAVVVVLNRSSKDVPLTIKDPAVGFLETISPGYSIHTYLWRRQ
Put plainly: Glucocerebrosidase (Gcase) activation assay, 4-methylumbelliferyl-beta-D-glucopyranoside substrate, with saposin C. Format: biochemical. To be noted: 10 nM GCase, 100 nM saposin C, pH 4.7; for activation at 0.1 µM: read-out: Percent Gcase Activation, 0.1 μM Test Compound; for activation at 1 µM: read-out: Percent Gcase Activation, 1 μM Test Compound. As to the method:
A 484 μL aliquot of a 1.0 mg/mL solution of phosphatidylserine (PS) (Sigma P7769) in chloroform was evaporated under a stream of nitrogen for 1 hour. The lipid film was dissolved over 4 minutes of vigorous vortexing in 40 mL of 176 mM K2HPO4/50 mM citric acid (pH 4.7) containing 7.5 μL of triton X-100, resulting in a mixed micellar preparation with a composition of 0.32 mM triton and 0.37 mol % PS. 4-Methylumbelliferyl-beta-D-glucopyranoside (ACROS-337025000) was dissolved in the micellar solution to a final concentration of 2 mM for use as the reaction substrate.
Test compounds were diluted to the desired concentrations with dimethylsulfoxide (DMSO) from 10 mM stocks, and 0.41 μL of the DMSO compound mixture was added to 100 μL of micellar solution containing 10 nM GCase and 100 nM saposin C (Enzo ALX-201-262-C050). Pre-incubation was allowed to occur for 30 minutes at room temperature, after which the reaction was initiated by combining 25 μL of substrate solution with 25 μL of compound/GCase/saposin mixture. The reaction proceeded for 15 minutes at room temperature and was stopped by adding 150 μL of 1M glycine, pH 12.5. The endpoint of the reaction was monitored by measuring fluorescence intensity (excitation: 365 nm; emission: 440 nm) on a SpectraMax i3 instrument (Molecular Devices). […]

Data set [2] is described as follows: Compound solubility in water.

In brackets after ≈: the same amount, converted by molar mass.

`Cc1nc2c(C(=O)NC3CCCc4ccccc43)cccc2o1` (stereo not drawn) [2-Methyl-N-(1,2,3,4-tetrahydronaphthalen-1-yl)benzo[d]oxazole-4-carboxamide]: in data set [1] (0.1 μM test compound), the activation at 0.1 µM is < 5%. Also, the activation at 1 µM in data set [1] (1 μM test compound) is > 20%. The same compound had a solubility in data set [2] of 1.5 µg/mL (≈ 4.9 µM).
Turning to `Cc1cn2ccnc(C(=O)NC3CCCc4ccccc43)c2n1` (stereo not drawn) [2-Methyl-N-(1,2,3,4-tetrahydronaphthalen-1-yl)imidazo[1,2-a]pyrazine-8-carboxamide], the activation at 0.1 µM in data set [1] (0.1 μM test compound) was < 5%. Moreover, in data set [1] (1 μM test compound), the activation at 1 µM was < 5%. In data set [2], the concentration in solution (solubility) came to 7.7 µg/mL (≈ 25.1 µM).
As for `CCC(NC(=O)c1cccc2oc(C)nc12)c1ccccc1` (stereo not drawn) [2-Methyl-N-(1-phenylpropyl)benzo[d]oxazole-4-carboxamide], the activation at 0.1 µM in data set [1] (0.1 μM test compound) was < 5%. For the same compound, the activation at 1 µM in data set [1] (1 μM test compound) lay within 5 to 20%. In data set [2], this compound gave a solubility of 13.2 µg/mL (≈ 44.7 µM).
Regarding `CCC(NC(=O)c1nccn2cc(C)nc12)c1ccccc1` (stereo not drawn) [2-Methyl-N-(1-phenylpropyl)imidazo[1,2-a]pyrazine-8-carboxamide], the activation at 0.1 µM in data set [1] (0.1 μM test compound) is < 5%. Further, the activation at 1 µM in data set [1] (1 μM test compound) was < 5%. The compound also showed a solubility in data set [2] of 10.9 µg/mL (≈ 37.1 µM).
`CCCCCO[C@H]1CC[C@H](NC(=O)c2cccc3oc(C)nc23)CC1` [2-Methyl-N-((1R,4R)-4-(pentyloxy)cyclohexyl)benzo[d]oxazole-4-carboxamide]: the activation at 0.1 µM in data set [1] (0.1 μM test compound) is < 5%. Further, the activation at 1 µM in data set [1] (1 μM test compound) was < 5%. The compound further yielded a solubility in data set [2] of 1.6 µg/mL (≈ 4.65 µM).
`CCCCCO[C@H]1CC[C@H](NC(=O)c2nccn3cc(C)nc23)CC1` [2-Methyl-N—((R 4R)-4-(pentyloxy)cyclohexyl)imidazo[1,2-a]pyrazine-8-carboxamide]: the activation at 0.1 µM in data set [1] (0.1 μM test compound) was < 5%. In addition, the activation at 1 µM in data set [1] (1 μM test compound) was < 5%. Moreover, the solubility in data set [2] was 8.4 µg/mL (≈ 24.4 µM).
With `Cc1ccc(C(=O)NC2CCCc3ccccc32)c2nccn12` (stereo not drawn) [5-Methyl-N-(1,2,3,4-tetrahydronaphthalen-1-yl)imidazo[1,2-a]pyridine-8-carboxamide], the activation at 0.1 µM in data set [1] (0.1 μM test compound) lay within 5 to 20%. Also, the activation at 1 µM in data set [1] (1 μM test compound) was > 20%. This compound also registered a solubility in data set [2] of 0.2 µg/mL (≈ 0.655 µM).
Consider `CCC(NC(=O)c1ccc(C)n2ccnc12)c1ccccc1` (stereo not drawn) [5-Methyl-N-(1-phenylpropyl)imidazo[1,2-a]pyridine-8-carboxamide], for which the activation at 0.1 µM in data set [1] (0.1 μM test compound) was 5 to 20%. In addition, in data set [1] (1 μM test compound), the activation at 1 µM was > 20%. Also, in data set [2], the solubility amounted to 6.2 µg/mL (≈ 21.1 µM).
As to `CCCCCO[C@H]1CC[C@H](NC(=O)c2ccc(C)n3ccnc23)CC1` [5-Methyl-N-((1S,4S)-4-(pentyloxy)cyclohexyl) imidazo[1,2-a]pyridine-8-carboxamide], the activation at 0.1 µM in data set [1] (0.1 μM test compound) is 5 to 20%. Besides, the activation at 1 µM in data set [1] (1 μM test compound) was > 20%. Also, in data set [2], the concentration in solution (solubility) was 14.2 µg/mL (≈ 41.3 µM).
Turning to `Cc1ccc(C(=O)N[C@@H](C)C2CC2)c2nccn12` [(S)—N-(1-Cyclopropylethyl)-5-methylimidazo[1,2-a]pyridine-8-carboxamide], in data set [1] (0.1 μM test compound), the activation at 0.1 µM is < 5%. Besides, the activation at 1 µM in data set [1] (1 μM test compound) lay in the range of 5 to 20%.
Take `Cc1ccc(C(=O)NC(C2CC2)C(F)(F)F)c2nccn12` (stereo not drawn) [N-(1-Cyclopropyl-2,2,2-trifluoroethyl)-5-methylimidazo[1,2-a]pyridine-8-carboxamide]: the activation at 0.1 µM in data set [1] (0.1 μM test compound) fell in the range of 5 to 20%. Further, the activation at 1 µM in data set [1] (1 μM test compound) is > 20%. This compound displayed a solubility in data set [2] of 9.9 µg/mL (≈ 33.3 µM).
Taken in the same sequence, the figures for `Cc1nc2c(C(=O)Nc3ccc4c(c3)CCC4)cccc2o1` [N-(2,3-Dihydro-1H-inden-5-yl)-2-methylbenzo[d]oxazole-4-carboxamide] were < 5%, 5 to 20% and 0.3 µg/mL (≈ 1.03 µM).
Taken in the same sequence, the figures for `Cc1cn2ccnc(C(=O)Nc3ccc4c(c3)CCC4)c2n1` [N-(2,3-Dihydro-1H-inden-5-yl)-2-methylimidazo[1,2-al]pyrazine-8-carboxamide] were < 5%, 5 to 20% and 1 µg/mL (≈ 3.42 µM).
In the same order, the values of `Cc1ccc(C(=O)Nc2ccc3c(c2)CCC3)c2nccn12` [N-(2,3-Dihydro-1H-inden-5-yl)-5-methylimidazo[1,2-a]pyridine-8-carboxamide] are < 5%, > 20% and 0.4 µg/mL (≈ 1.37 µM).
As to `Cc1ccc(C(=O)NC(C)(C)C2CC2)c2nccn12` [N-(2-Cyclopropylpropan-2-yl)-5-methylimidazo[1,2-a]pyridine-8-carboxamide], in data set [1] (0.1 μM test compound), the activation at 0.1 µM was < 5%. In addition, in data set [1] (1 μM test compound), the activation at 1 µM is > 20%.
`C#Cc1ccc(NC(=O)c2nccn3cc(C)nc23)cc1` [N-(4-Ethynlphenyl)-2-methylimidazo[1,2-a]pyrazine-8-carboxamide]: the activation at 0.1 µM in data set [1] (0.1 μM test compound) is < 5%. Besides, in data set [1] (1 μM test compound), the activation at 1 µM is 5 to 20%. This compound showed a solubility in data set [2] of 0.8 µg/mL (≈ 2.9 µM).
With “N-(4-Ethynylphenyl)-5-methylimidazo[1,2-a]pyrazine-8-carboxamide”, the “Percent Gcase Activation, 0.1 μM Test Compound” value in data set [1] (0.1 μM test compound) was “++ (Gcase activation in the range of 5% up to 20%)”. In addition, the “Percent Gcase Activation, 1 μM Test Compound” value in data set [1] (1 μM test compound) was “+++ (Gcase activation greater than 20%)”.
